What was measured:
clinical = details: human, in vivo, Mean
Ang2 = details: patients with metastatic RCC under sunitinib treatment; cited from earlier work

SMILES | AUC(0-t) (clinical; 3 mg/kg, Sorafenib AUC (AUC0-12)) | Cmax (clinical; 3 mg/kg, Sorafenib Cmax) | Tmax (clinical; 3 mg/kg, Sorafenib Tmax) | AUC(0-t) (clinical; 10 mg/kg, Sorafenib AUC (AUC0-12)) | Cmax (clinical; 10 mg/kg, Sorafenib Cmax) | Tmax (clinical; 10 mg/kg, Sorafenib Tmax) | decrease in plasma Ang2 levels (Ang2) | AUC(0-t) (clinical; 3 mg/kg, Sunitinib AUC (AUC0-24)) | Cmax (clinical; 3 mg/kg, Sunitinib Cmax) | Tmax (clinical; 3 mg/kg, Sunitinib Tmax) | AUC(0-t) (clinical; 10 mg/kg, Sunitinib AUC (AUC0-24)) | Cmax (clinical; 10 mg/kg, Sunitinib Cmax) | Tmax (clinical; 10 mg/kg, Sunitinib Tmax)
CNC(=O)c1cc(Oc2ccc(NC(=O)Nc3ccc(Cl)c(C(F)(F)F)c3)cc2)ccn1 [Sorafenib, sorafenib] | 2580 ng·h/mL | 466 ng/mL | 1.1 h | 3130 ng·h/mL | 559 ng/mL | 1 h | – | – | – | – | – | – | –
CCN(CC)CCNC(=O)c1c(C)[nH]c(/C=C2\C(=O)Nc3ccc(F)cc32)c1C [Sunitinib, sunitinib] | – | – | – | – | – | – | 80% | 1300 ng·h/mL | 64.2 ng/mL | 8 h | 1250 ng·h/mL | 61.8 ng/mL | 8.1 h
